Assay results reported in ChEMBL document CHEMBL1201862, “PubChem BioAssay data set” (2004).
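Compound exposure: 48 hours, 5 concentrations, 96-well plates. GI50 = concentration required for 50% inhibition of growth.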 The source made the active and inactive calls. Cut-off read from the data, not from the text of the source: active = GI50 up to about 1.1 µM and inactive = higher.

Columns and labels:
Assay in all cases: growth of human tumour cells (NCI), 48 h
OVCAR-8 = tested on: OVCAR-8
A498 = tested on: A498
KM12 = tested on: KM12
NCI-H226 = tested on: NCI-H226
IGROV-1 = tested on: IGROV-1
786-0 = tested on: 786-0
ACHN = tested on: ACHN
CAKI-1 = tested on: CAKI-1
RXF 393 = tested on: RXF 393
NCI-H522 = tested on: NCI-H522
U-251 = tested on: U-251
HCC 2998 = tested on: HCC 2998
EKVX = tested on: EKVX
MOLT-4 = tested on: MOLT-4
SF-295 = tested on: SF-295

Measured: GI50

Cc1ccc(NC(=O)C(=O)C(C(=O)c2ccc3ccccc3c2)C2OC(=O)c3ccccc32)c(C)c1 (stereo not given)
inactive: OVCAR-8 7.67 µM | A498 6.1 µM | KM12 16.4 µM | NCI-H226 2.63 µM | IGROV-1 10.9 µM | 786-0 6.93 µM | ACHN 23.6 µM | CAKI-1 6.68 µM | RXF 393 3.24 µM | NCI-H522 12.8 µM | U-251 3.64 µM | HCC 2998 8.99 µM | EKVX 19.1 µM | MOLT-4 3.31 µM

O=Cc1c(O)c(C(=O)Nc2ccc3[nH]c(=O)[nH]c3c2)cc2ccccc12
inactive: OVCAR-8 > 100 µM | A498 > 100 µM | KM12 > 100 µM | NCI-H226 > 100 µM | IGROV-1 > 100 µM | 786-0 > 100 µM | ACHN > 100 µM | CAKI-1 > 100 µM | SF-295 > 100 µM | RXF 393 > 100 µM | NCI-H522 > 100 µM | U-251 > 100 µM | HCC 2998 > 100 µM | EKVX > 100 µM | MOLT-4 > 100 µM

O=C(c1ccc(Cl)cc1)c1ccc(OCCSCCCCCCCCCCSCCOc2ccc(C(=O)c3ccc(Cl)cc3)cc2)cc1
inactive: OVCAR-8 > 100 µM | A498 > 100 µM | KM12 > 100 µM | NCI-H226 > 100 µM | IGROV-1 > 100 µM | 786-0 > 100 µM | ACHN > 100 µM | CAKI-1 > 100 µM | SF-295 91.8 µM | RXF 393 > 100 µM | NCI-H522 > 100 µM | U-251 > 100 µM | HCC 2998 > 100 µM | EKVX > 100 µM | MOLT-4 > 100 µM

O=C1COc2cc(NC(=S)Nc3ccccc3)ccc2N1
inactive: OVCAR-8 > 100 µM | KM12 > 100 µM | NCI-H226 > 100 µM | IGROV-1 > 100 µM | 786-0 > 100 µM | ACHN > 100 µM | CAKI-1 > 100 µM | SF-295 > 100 µM | RXF 393 > 100 µM | NCI-H522 > 100 µM | U-251 > 100 µM | HCC 2998 > 100 µM | EKVX > 100 µM | MOLT-4 > 100 µM

N=C(N)N/N=C/c1oc(-c2ccc(S(=O)(=O)O)o2)c(-c2ccc(S(=O)(=O)O)o2)c1[N+](=O)[O-]
inactive: OVCAR-8 > 100 µM | A498 > 100 µM | KM12 > 100 µM | NCI-H226 > 100 µM | IGROV-1 > 100 µM | 786-0 > 100 µM | ACHN > 100 µM | CAKI-1 > 100 µM | SF-295 > 100 µM | RXF 393 > 100 µM | NCI-H522 > 100 µM | U-251 > 100 µM | HCC 2998 > 100 µM | EKVX > 100 µM | MOLT-4 > 100 µM

COc1cc(OC(C)=O)cc2c(OC(C)=O)ccc(OC(C)=O)c12
inactive: OVCAR-8 > 100 µM | A498 > 100 µM | KM12 > 100 µM | IGROV-1 > 100 µM | 786-0 > 100 µM | ACHN > 100 µM | CAKI-1 > 100 µM | SF-295 > 100 µM | RXF 393 > 100 µM | NCI-H522 > 100 µM | U-251 > 100 µM | EKVX > 100 µM | MOLT-4 > 100 µM

C=C1C(=O)OC2CCCCC3OC3C12 (stereo not given)
inactive: OVCAR-8 15.9 µM | A498 15.3 µM | KM12 16.6 µM | IGROV-1 17.1 µM | 786-0 7.19 µM | ACHN 11 µM | CAKI-1 3.36 µM | SF-295 23.2 µM | RXF 393 13.4 µM | NCI-H522 1.87 µM | U-251 10.7 µM | HCC 2998 11.7 µM | EKVX 16.9 µM | MOLT-4 13.1 µM

Cc1cc(N(CCC#N)CCC#N)ccc1/C=C(\N=[N+]=[N-])C(=O)NC(=O)COc1ccccc1
inactive: OVCAR-8 > 81.1 µM | A498 > 100 µM | KM12 > 100 µM | NCI-H226 > 100 µM | IGROV-1 > 100 µM | 786-0 > 100 µM | ACHN > 100 µM | CAKI-1 > 100 µM | SF-295 > 61.7 µM | RXF 393 > 46.3 µM | NCI-H522 > 100 µM | U-251 > 67.8 µM | HCC 2998 > 100 µM | EKVX > 100 µM | MOLT-4 > 100 µM

COc1cccc(/C=N\NC(=O)C(C)SC(C)C(=O)N/N=C/c2cccc(OC)c2)c1 (stereo not given)
inactive: OVCAR-8 28.4 µM | A498 13 µM | KM12 31.5 µM | NCI-H226 21.2 µM | IGROV-1 20.3 µM | 786-0 17.3 µM | ACHN 18.9 µM | CAKI-1 34.3 µM | SF-295 32.2 µM | RXF 393 11.1 µM | NCI-H522 22.3 µM | U-251 18 µM | HCC 2998 18.5 µM | EKVX 27 µM | MOLT-4 39.4 µM
